Measured values from US12329801B2, “Regenerative polypeptides and uses thereof” (JUVENA THERAPEUTICS, INC., priority 2021, dated 2025).

Legend:
[1] = test system: DM1 human myoblast; assay: Myogenic gene expression fold change in DM1 human myoblast; format: cell-based; settings: 48 h; BMP7 50 ng/mL, Butyrate 100 nM, IGF2 200 ng/mL
Description: Myoblasts were cultured 48 h in the presence of factors (BMP7 50 ng/mL, Butyrate 100 nM, IGF2 200 ng/mL).
Myoblasts were cultured 96 h in the presence of factors (IGF2 200 ng/ml). […] Myoblasts were cultured 48 h in the presence of factors (IGF2 200 ng/mL).
IGF2 was tested individually for its ability to promote proliferation and/or fusion of human muscle progenitor cells from an individual with myotonic dystrophy type 1 (hMD)—a muscular dystrophy caused by mutations in the DMPK1 gene. The effect of IGF2 on myogenic activity was assayed in biological triplicate across a range of concentrations centered around expected physiological levels by adding each factor to hMD myoblasts for 72 hours with daily media changes (DMEM +2% horse serum) and a second pulse of factors at the first media change. After 72 or 96 hours, cells were pulsed for 2-5 hours with EdU (30 uM), ethanol fixed, stained with Hoescht 3342, immunostained for proliferation—as measured by the percent of cells staining positive for EdU (% EdU)-, and immunostained for differentiation—as measured by the increase in cellular area staining positive for embryonic myosin heavy chain (% eMyHC) relative to the negative controls, which received media and vehicle only. Wells were imaged on a Keyence BZ-100 at 4×, the images quantified in Cell Profiler, and the statistics were computed in R. Additionally, RNA was extracted from myoblast and select transcript abundances quantified by qPCR.

[2] = test system: Aged human myoblasts; assay: Myogenic transcription factor expression in aged human myoblasts (qPCR); format: cell-based
Description: RNA was isolated from each well (RNeasy Mini Kit, Qiagen) and cDNA was obtained by reverse-transcription (High Capacity Reverse Transcription Kit, Thermo Fisher Scientific). Real-time quantitative PCR was performed using QuantStudio3 (Thermo Fisher).
Aged human myoblasts were cultured in well plates. […] Cells that had been cultured with IGF2 had increases in levels of MYOG at 48 hours and levels of MYOD at 72 hours.

[3] = Murine pharmacokinetics, intravenous, ELISA, non-compartment analysis; format: in vivo, mice; settings: mice 10-12 weeks old, dose 10 mg/kg (HSA-IGF2R61A), 600 ug/kg (IGF2)
Description: Murine pharmacokinetics (PK) represents the absorption, distribution, metabolism, and elimination of drugs from the body. The pharmacokinetic profile of the therapeutic polypeptides were determined in mice (10-12 weeks old). Mice were fed ad libitum and housed under controlled conditions of lighting (12-hour light/12-hour dark) and temperature (22-24° C.). Mice were allowed to acclimate for 3 days prior to the initiation of the experiment. Intravenous (IV) injection in 10-12 weeks old mice. Engineered mitogenic polypeptides concentrations in the samples were measured by ELISA. Various pharmacokinetics will be calculated as well as the absorption/elimination dynamics following different routes of administration.

## IGF2: Human IGF2 amino acid sequence, SEQ ID NO: 29
[1]
  MYF5 expression fold change compared to FM (vehicle): 0.730
  MYOD1 expression fold change compared to FM (vehicle): 1.252
  MYOG expression fold change compared to FM (vehicle): 2.972
[2]; 48 h
  MYF5 fold change: 0.409
  MYOD1 fold change: 0.519
  MYOG fold change: 5.756
[2]; 72 h
  MYF5 fold change: 0.708
  MYOD1 fold change: 5.723
  MYOG fold change: 0.018
[3]
  Half-life: 2.85 h
